Source: patent publication US8030306B2, “Azabicyclic heterocycles as cannabinoid receptor modulators” (Bristol-Myers Squibb Company, priority 2006, dated 2011)
≈ marks a conversion by molar mass, not a printed value.

Legend:
recombinant human CB-1 = target: T1, recombinant human CB-1 (Homo sapiens, UniProt P21554); experiment: Cannabinoid receptor binding assay (radioligand 3H-CP-55,940, CHO-CB-1 membranes); settings: membranes of CHO cells over-expressing recombinant human CB-1, 2 nM 3H-CP-55,940, read-out: CB1 Ki
T1 construct: expressed in transfected cells; host or cells: CHO cells (CHO-CB-1), membrane preparation
Procedure: Radioligand binding studies were conducted in membranes prepared from Chinese Hamster Ovary (CHO) cells that over-express recombinant human CB-1 (CHO-CB-1 cells). Total assay volume for the binding studies was 100 μl. 5 μg of membranes were brought up to a final volume of 95 μl with Binding Buffer (25 mM HEPES, 150 mM NaCl, 2.5 mM CaCl2, 1 mM MgCl2, 0.25% BSA). The diluted membranes were preincubated with a compound or DMSO vehicle. The binding reaction was initiated by the addition of 2 nM final ^3H-CP-55,940 (120 Ci/mmol) and proceeded for 2.5 hours at room temperature. The binding reaction was terminated by transferring the reaction to GF/B 96 well plates (presoaked with 0.3% polyethylenimine) using a Packard Cell Harvester. The filter was washed with 0.25 ×PBS, 30 μl MicroScint was added per well, and the bound radiolabel was quantitated by scintillation counting on a Packard TopCount Scintillation Counter. The CB-2 radioligand binding assay was conducted identically except that the membranes from CHO-CB-2 cells were used.

[1] = 16 week trial period, Phase IIb; cited from earlier work
[2] = Thermodynamic equilibrium aqueous solubility assay; type: physicochemical; settings: thermodynamic from solid, room temperature, default 50 mM pH 6.5 potassium phosphate buffer
Procedure: • Assay Name: Thermodynamic Equilibrium Aqueous Solubility Assay • Description: The purpose of this assay is to provide a medium throughput estimation of the thermodynamic equilibrium aqueous solubility of compounds at room temperature. Solvent system default is 50 mM pH 6.5 potassium phosphate buffer. Detailed Protocol:
Standards Preparation—The calibration standard is prepared by accurately weighing 0.5-0.7 mg of sample in 5 ml of methanol. […] A serial dilution is performed on the standard solution.
The final saturated solution is prepared by adding 1.0 ml of the appropriate aqueous solvent to the remaining portion of material (1 dram submission vial). The solution is sonicated and vortexed for ˜30 seconds. The sample solution is placed on an orbiter that continually agitates the sample solutions for 15-24 hours at room temperature. The final saturated solution is then transferred to a 1.5 ml eppendorf tube and centrifuged for ˜2 min. at 10000 rpms. The supernatant from the saturated solution is transferred to a glass HPLC-suitable vial without filtering since the […] is insufficient to saturate the syringe filter. This sample preparation procedure nullifies the effects of non-specific binding to the filtering apparatus.
The standards and sample are analyzed by HPLC using either UV/Vis diode array or variable wavelength detection. Typical quantitation wavelengths are 210 or 254 nm; detection wavelength can be individually customized to optimize sensitivity. In addition to UV detection, mass spectrometry detection is recommended if available in order to confirm the identity of the HPLC-UV peak of interest.
Dilutions of aqueous test solutions are performed if HPLC-UV peak is beyond the linear portion of the standard calibration curve. Typical dilutions include 100 ul/900 ul (×10) or 500 ul/500 ul (2 ×), as required.

[3] = Canine half-life assay (IV pharmacokinetics); type: in vivo; settings: dog, plasma; male beagle dogs, IV 1 mg/kg; unit not given in table (text gives hrs)
Procedure: Functional canine half-life of test compounds was determined by methods […] to one of ordinary skill in the art. For example, pharmacokinetic parameters were determined in male beagle dogs (weight of 12.4, 13.2 and 8.9 kg). The intravenous (“IV”) solution dose studies were conducted in a crossover design (n=3). Animals with vascular access ports, chronically implanted in the femoral vein, were used for administration of the dose. The animals had free access to water and were conscious and unrestrained throughout the study. In the IV study, drug was infused at a dose of 1 mg/kg (1 mL/kg) in 50% PEG-400, 10% ethanol and 40% water over 10 minutes. Serial blood samples were collected from the jugular vein at 0.167, 0.25, 0.5, 0.75, 1, 2, 4, 6, 8, 24, 48 and 72 hours post-dose. Plasma was prepared immediately, and the samples were frozen on dry ice and stored at −20° C. until analysis. All samples were analyzed for the concentration of the parent drug by LC-MS/MS analysis.
The pharmacokinetic parameters were calculated by Non-Compartmental Analysis using the […]™ software program (version 4.2, InnaPhase Co., Philadelphia, Pa.). The AUCO-Tlast and AUCtot values were calculated using the trapezoidal summations. The elimination half-life (T1/2) was calculated from the terminal, linear portion of the plasma concentration-time data curve. The total clearance (CLplasma), mean residence time (MRT), and the steady state volume of distribution (Vss) were also calculated after intravenous administration. The total blood clearance (CLblood) was calculated by using the total plasma clearance and the blood to plasma concentration ratio. All results are expressed as mean±SD, unless specified otherwise.

T1 sequence (P21554 whole entry): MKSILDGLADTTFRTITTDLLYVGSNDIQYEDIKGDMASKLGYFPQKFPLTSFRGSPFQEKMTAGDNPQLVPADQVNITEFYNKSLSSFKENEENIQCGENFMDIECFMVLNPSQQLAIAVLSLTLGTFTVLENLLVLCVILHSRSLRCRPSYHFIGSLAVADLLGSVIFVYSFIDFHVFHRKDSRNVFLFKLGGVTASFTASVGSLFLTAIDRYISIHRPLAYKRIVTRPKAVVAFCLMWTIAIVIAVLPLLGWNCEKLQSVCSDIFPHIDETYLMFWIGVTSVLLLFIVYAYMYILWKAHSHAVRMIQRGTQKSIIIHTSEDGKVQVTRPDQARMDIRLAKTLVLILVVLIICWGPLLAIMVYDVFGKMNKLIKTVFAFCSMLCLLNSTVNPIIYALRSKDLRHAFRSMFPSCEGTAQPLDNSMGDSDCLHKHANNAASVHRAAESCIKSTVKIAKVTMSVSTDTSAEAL

Row | SMILES | Ki (recombinant human CB-1) [nM] | solubility [2] [µg/mL] | half-life [3] [h] | body weight in human subjects [1]
1 | Cc1c(C(=O)NN2CCCCC2)nn(-c2ccc(Cl)cc2Cl)c1-c1ccc(Cl)cc1 [SR-141716] |  |  |  | dose-dependently reduced body weight
2 | CNCc1nnc2c(-c3ccc(Cl)cc3)c(-c3ccccc3)c(=O)n(Cc3ccc(C(F)(F)F)nc3C)n12 [Example 14] | 10 | 25 (≈ 46.4 µM) |  | 
3 | Cc1ccc(-c2c(-c3ccc(Cl)cc3)c(=O)n(Cc3ccc(C(F)(F)F)nc3C)n3c([C@H](C)O)nnc23)cc1 [Example 18, (S)-7-(4-chlorophenyl)-3-(1-hydroxyethyl)-5-((2-methyl-6-(trifluoromethyl)pyridin-3-yl)methyl)-8-p-tolyl-[1,2,4]triazolo[4,3-b]pyridazin-6(5H)-one] | 14 | 7 (≈ 12.6 µM) |  | 
4 | Cc1ccc(-c2c(-c3ccc(Cl)cc3)c3nnc([C@H](C)O)n3n(Cc3ccc(C(F)(F)F)nc3C)c2=O)cc1 [Example 19, (S)-8-(4-chlorophenyl)-3-(1-hydroxyethyl)-5-((2-methyl-6-(trifluoromethyl)pyridin-3-yl)methyl)-7-p-tolyl-[1,2,4]triazolo[4,3-b]pyridazin-6(5H)-one] | 5 | 7 (≈ 12.6 µM) |  | 
5 | Cc1nc(C(F)(F)F)ccc1Cn1c(=O)c(-c2ccccc2)c(-c2ccc(Cl)cc2)c2nnc(CN)n21 [Example 12] | 8 | 101 (≈ 192 µM) |  | 
6 | Cc1nc(C(F)(F)F)ccc1Cn1c(=O)c(-c2ccc(Cl)cc2)c(-c2ccc(Cl)cc2)c2nnc(CN)n21 [Example 15] | 12 | 16 (≈ 28.6 µM) |  | 
7 | Cc1nc(C(F)(F)F)ccc1Cn1c(=O)c(-c2ccccc2)c(-c2ccc(Cl)cc2)c2nnc([C@H](C)O)n21 [Example 20, (S)-8-(4-chlorophenyl)-3-(1-hydroxyethyl)-5-((2-methyl-6-(trifluoromethyl)pyridin-3-yl)methyl)-7-phenyl-[1,2,4]triazolo[4,3-b]pyridazin-6(5H)-one] | 6 | 22 (≈ 40.7 µM) |  | 
8 | COCc1nnc2c(-c3ccc(Cl)cc3)c(-c3ccc(C#N)cc3)c(=O)n(Cc3ccc(C(F)(F)F)nc3C)n12 [Example 2, 4-(8-(4-chlorophenyl)-3-(methoxymethyl)-5-((2-methyl-6-(trifluoromethyl)pyridin-3-yl)methyl)-6-oxo-5,6-dihydro-[1,2,4]triazolo[4,3-b]pyridazin-7-yl)benzonitrile] | 5 | 6 (≈ 10.6 µM) | 23 | 
9 | Cc1ccc(-c2c(-c3ccc(Cl)cc3)c3nnc([C@H](C)N)n3n(Cc3ccc(C(F)(F)F)nc3C)c2=O)cc1 [Example 16] | 6 | 38 (≈ 68.7 µM) |  | 
10 | Cc1ccc(-c2c(-c3ccc(Cl)cc3)c(=O)n(Cc3ccc(C(F)(F)F)nc3C)n3c(CN)nnc23)cc1 [Example 17] | 20 | 31 (≈ 57.5 µM) |  | 
11 | Cc1nc(C(F)(F)F)ccc1Cn1c(=O)c(-c2ccccc2)c(-c2ccc(Cl)cc2)c2nnc([C@@H](C)O)n21 [Example 21, (R)-8-(4-chlorophenyl)-3-(1-hydroxyethyl)-5-((2-methyl-6-(trifluoromethyl)pyridin-3-yl)methyl)-7-phenyl-[1,2,4]triazolo[4,3-b]pyridazin-6(5H)-one] | 27 | 31 (≈ 57.4 µM) |  | 
12 | Cc1nc(C(F)(F)F)ccc1Cn1c(=O)c(-c2ccc(C#N)cc2)c(-c2ccc(Cl)cc2)c2nnc(CO)n21 [Example 3, 4-(8-(4-chlorophenyl)-3-(hydroxymethyl)-5-((2-methyl-6-(trifluoromethyl)pyridin-3-yl)methyl)-6-oxo-5,6-dihydro-[1,2,4]triazolo[4,3-b]pyridazin-7-yl)benzonitrile] | 3 | 15 (≈ 27.2 µM) | 20 | 

Now from value to molecule, other results behind:

Row | Ki (recombinant human CB-1) [nM] | solubility [2] [µg/mL] | half-life [3] [h] | SMILES | body weight in human subjects [1]
13 | 10 |  |  | Cc1nc(C(F)(F)F)ccc1Cn1c(=O)c(-c2ccc(C#N)cc2)c(-c2ccc(Cl)cc2)c2nnc([C@H](C)O)n21 [Example 5, (S)-4-(8-(4-chlorophenyl)-3-(1-hydroxyethyl)-5-((2-methyl-6-(trifluoromethyl)pyridin-3-yl)methyl)-6-oxo-5,6-dihydro-[1,2,4]triazolo[4,3-b]pyridazin-7-yl)benzonitrile] | 
14 | 11 |  |  | Cc1nc(C(F)(F)F)ccc1Cn1c(=O)c(-c2ccc(C#N)cc2)c(-c2ccc(Cl)cc2)c2nnc(CN)n21 [Example 11, 4-(3-(aminomethyl)-8-(4-chlorophenyl)-5-((2-methyl-6-(trifluoromethyl)pyridin-3-yl)methyl)-6-oxo-5,6-dihydro-[1,2,4]triazolo[4,3-b]pyridazin-7-yl)benzonitrile] | 
15 | 3 | 20 (≈ 37.1 µM) |  | Cc1ccc(-c2c(-c3ccc(Cl)cc3)c3nnc(CN)n3n(Cc3ccc(C(F)(F)F)nc3C)c2=O)cc1 [Example 13] | 
16 | 15 | 10 (≈ 17.7 µM) |  | Cc1nc(C(F)(F)F)ccc1Cn1c(=O)c(-c2ccc(C#N)cc2)c(-c2ccc(Cl)cc2)c2nnc([C@@H](C)O)n21 [Example 4, (R)-4-(8-(4-chlorophenyl)-3-(1-hydroxyethyl)-5-((2-methyl-6-(trifluoromethyl)pyridin-3-yl)methyl)-6-oxo-5,6-dihydro-[1,2,4]triazolo[4,3-b]pyridazin-7-yl)benzonitrile] | 
17 | 13 | 2 (≈ 3.46 µM) |  | Cc1nc(C(F)(F)F)ccc1Cn1c(=O)c(-c2ccc(C#N)cc2)c(-c2ccc(Cl)cc2)c2nnc(CN(C)C)n21 [Example 10, 4-(8-(4-chlorophenyl)-3-((dimethylamino)methyl)-5-((2-methyl-6-(trifluoromethyl)pyridin-3-yl)methyl)-6-oxo-5,6-dihydro-[1,2,4]triazolo[4,3-b]pyridazin-7-yl)benzonitrile] | 
18 | 3 | 4 (≈ 7.41 µM) | 39 | COCc1nnc2c(-c3ccc(Cl)cc3)c(-c3ccccc3)c(=O)n(Cc3ccc(C(F)(F)F)nc3C)n12 [Example 22, 8-(4-chlorophenyl)-3-(methoxymethyl)-5-((2-methyl-6-(trifluoromethyl)pyridin-3-yl)methyl)-7-phenyl-[1,2,4]triazolo[4,3-b]pyridazin-6(5H)-one] | 
